Experimental findings from ChEMBL document CHEMBL3097993, “Synthesis and initial biological evaluation of new mimics of the LXR-modulator 22(S)-hydroxycholesterol” (2014) are described below.

Activity calls are given as the source filed them. The calls are words filed in the database; no cut-off is given here.

For test [1], the species on record is Homo sapiens. Put plainly: Inhibition of tularic-induced lipogenesis in human myotubes at 10 uM after 4 days by scintillation counting analysis in presence of [1-14C]acetate relative to control. The format is functional.
In test [2] the target is T1, Liver X receptor (Homo sapiens) (UniProt Q13133+P55055). Kind of test: Antagonist activity at LXR in human myotubes assessed as downregulation of SCD1 expression at 10 uM after 4 days by qPCR analysis. (In qPCR the cycle at which signal appears reflects the starting amount.)
Test [3] is filed under the species Homo sapiens. Kind of test: (§1) Induction of lipogenesis in human myotubes at 10 uM after 4 days by scintillation counting analysis in presence of [1-14C]acetate relative to control. It counts as functional.
A short description of test [4]: as §1. The format is functional.
In test [5] the target is T1, Liver X receptor (Homo sapiens). Kind of test: Agonist activity at LXR in human myotubes assessed as upregulation of SCD1 expression at 10 uM after 4 days by qPCR analysis.
For test [6], the species on record is Homo sapiens. Kind of test: Induction of lipogenesis in human myotubes at 1 uM after 4 days by scintillation counting analysis in presence of [1-14C]acetate. It counts as functional.

In the case of `CC(C)CC[C@H](O)[C@@H](C)[C@H]1CC[C@H]2[C@@H]3CC=C4C[C@@H](O)CC[C@]4(C)[C@H]3CC[C@]12C`, the inhibition entry in the test listed under Homo sapiens [1] is “Active”. For the same compound, the outcome in test [2] was Active. Besides, the outcome in the test filed under Homo sapiens [3] was inactive.

Consider `CC(C)CC[C@H](O)[C@@H](C)COCc1ccc(S(=O)(=O)N2CCCC2)cc1`, for which the “fold change (FC)” value in test [4] is 2. Besides, the result in test [5] was Active.

As for `O=S(=O)(c1ccccc1)N(CC(F)(F)F)c1ccc(C(O)(C(F)(F)F)C(F)(F)F)cc1`, in the test listed under Homo sapiens [6], the outcome was Active.
